The source of these data is patent US20120322060A1, “DIAGNOSIS AND MONITORING TREATMENT OF PSYCHIATRIC DISEASES WITH SPADIN AND RELATED METHODS” (CENTRE NATIONAL DE LE RECHERCHE SCIENTIFIQUE - CNRS -, priority 2011, published 2012).

The test system of experiment [1] is mice. The experiment is described as follows: Porsolt Forced Swim Test (FST) in mice. The format is in vivo, mouse. Here is the method: Mice (Janvier, France) were placed individually in cylinders (height: 30 cm, diameter: 15 cm) filled with 12 cm deep water (temperature: 22±1° C.) for 6 min. The total period of immobility was recorded during the last 4 min.

The test system of experiment [2] is mice. The experiment is described as follows: Tail Suspension Test (TST). The experiment is classed as in vivo, mouse. The note with it: subchronic, 4 days; spadin i.v. 10^-6 M, fluoxetine 3 mg/kg. How it is done:
Mice were suspended by the tail. […] The immobility time was recorded during a 6 min test session.

The test system of experiment [3] is mice. The experiment is described as follows: Novelty-Suppressed Feeding test (NSF). The format is in vivo, mouse. The following applies: 4 days; spadin i.v. 10^-6 M, fluoxetine i.p. 3 mg/kg. Here is the method:
NSF paradigm is a conflict test that elicits competing motivations: the drive to eat and the fear of venturing into the center of a bright arena. Latency to begin eating is used as an index of anxiety- and depression-like behavior. After 4 day treatment (saline or spadin, i.v.) and 24 hours food-deprivation, mice were presented with a food pellet placed in the center of a brightly plastic box (50×50×20 cm). Latency to begin eating was measured as previously described.

Experiment [4] has as its system mice. The experiment is described as follows: Corticosterone assay after tube restraint stress. The following applies: 30 min after 10 min tube restraint; spadin i.p. 10^-5 M. The format is in vivo, mouse. Here is the method: Mice were individually housed for at least 12 hours before blood sample collection. Serum samples, collected in the morning were obtained by retroorbital puncture before and 30 min after the end of a 10-min tube restraint. Levels of corticosterone were measured by radioimmunoassay using a commercially available kit (MP Biomedicals).

Experiment [5] concerns dentate gyrus of the mouse hippocampus. The experiment can be described thus: Hippocampal neurogenesis (BrdU / DCX labeling). The format is in vivo. How it is done:
Twenty-four hours after the injection of BrdU (120 mg per kg of body weight in a 300 μl bolus), mice were euthanized and transcardially perfused with 4% cold paraformaldehyde. Serial sections of the brains were cut (40 μm) throughout the entire hippocampus on a vibratome (Leica). Every sixth section throughout the hippocampus was processed for BrdU or doublecortin (DCX) immunohistochemistry, as previously described. For each immunodetection, slides were first incubated overnight at 4° C. with a mouse monoclonal anti-BrdU antibody (1:200; Becton-Dickinson) or a goat anti-DCX (1:400, Santa Cruz Laboratories). For chromogenic immunodetection, sections were then incubated for 1 hour in biotin-conjugated species-specific secondary antibodies (1:100; Vector Laboratories) followed by a peroxidase-avidin complex solution according to the manufacturer's protocol. The peroxidase activity of immune complexes was visualized with DAB staining using the VectaStain ABC kit (Vector Laboratories). For fluorescent double-labeling, performed to determine the cell phenotype, sections were incubated overnight at 4° C. with anti-sheep BrdU (1:200, Interchim), anti-goat DCX (1:200, Santa Cruz Laboratories), or an anti-GFAP (Glial Fibrillary acidic protein, marker for astrocytes, 1:250, Dako). […] All BrdU-labeled cells in the granular cell layer and subgranular zone (SGZ) were counted in each section (n=10 and 5 mice per group) at 400× and 1000× magnification under a light microscope (Olympus) by an experimenter blinded to the study code. The total number of BrdU-positive cells per section was multiplied by 6 to obtain the total number of cells per dentate gyrus. The counting of BrdU/DCX labeled cells was performed using a Laser Scanning Confocal Microscope (TCS SP, Leica) equipped with a DMIRBE inverted microscope.

In experiment [6] the target is T1, TREK-1 (Mus musculus, UniProt P97438).
T1 sequence (P97438 1-426): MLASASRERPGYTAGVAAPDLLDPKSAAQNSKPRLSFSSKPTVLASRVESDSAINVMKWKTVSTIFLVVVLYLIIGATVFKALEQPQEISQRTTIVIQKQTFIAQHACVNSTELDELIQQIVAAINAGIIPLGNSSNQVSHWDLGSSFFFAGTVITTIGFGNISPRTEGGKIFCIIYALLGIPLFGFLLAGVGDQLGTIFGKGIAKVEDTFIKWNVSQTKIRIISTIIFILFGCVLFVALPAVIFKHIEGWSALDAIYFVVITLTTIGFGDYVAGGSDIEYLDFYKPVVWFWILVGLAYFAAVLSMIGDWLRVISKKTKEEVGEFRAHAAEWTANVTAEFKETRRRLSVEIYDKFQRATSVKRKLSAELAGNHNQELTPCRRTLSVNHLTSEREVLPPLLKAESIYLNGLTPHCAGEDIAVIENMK
The experiment is described as follows: Whole-cell patch-clamp on cultured pyramidal neurons from hippocampus. The format is cell-based. Details: endogenous in cells; host or cells: primary hippocampal pyramidal neurons from newborn mice. The note with it: 20 μM fluoxetine. How it is done:
A, Cultured pyramidal neuron from hippocampus, with on top, the patch-clamp pipette. Neurons were chosen according to their morphology. B, Current recorded in response to ramps of potential obtained in the various conditions indicated (aa: arachidonic acid: 10 μM, Spadin: 1[…]μM, Fluoxetine: 20 μM). Neurons were recorded in the whole-cell configuration of the patch-clamp technique. In voltage-clamp, ramps of potential from −90 mV to 70 mV were applied every 10 sec. The % variation of the current amplitude was always measured at −50 mV. The currents were recorded in response to such ramps in control conditions and in the presence of a cocktail of potassium blockers suitable to isolate the TREK currents (10 mM tetraethyl ammonium (TEA), 3 mM 4-aminopyridine (4-AP), 50 nM charybdotoxin, 10 μM glibenclamide, 100 nM apamin). […] The blocks were reversible. C, Time course of spadin and fluoxetine effects. Applications are indicated by the horizontal bars.
Cortical neurons were prepared from 14 old mouse embryos whereas hippocampal neurons were prepared from new born mice. Briefly, dissected brain areas were dissociated and neurons were plated on polylysine-treated 35 or 60 mm dishes and maintained in culture in Neurobasal medium supplemented with B27, Glutamax and antibiotics for 2 to 3 weeks before to be used for electrophsysiological or biochemical experiments.

For experiment [7], the target named is T1, TREK-1. The experiment is described as follows: Whole-cell patch-clamp on CA3 pyramidal neurons in hippocampus brain slices. The format is cell-based. Further details: a cellular network that endogenously expresses both TREK-1 and NTSR3/Sortilin; from tissue; host or cells: mouse hippocampal brain slices, CA3 pyramidal neurons. The note with it: wild-type CA3 neurons, no aa.

The target in experiment [8] is T1, TREK-1. The experiment is described as follows: Competition with 125I-spadin for binding to TREK-1 transfected COS-7 cell homogenates. Further details: expressed in transfected cells; host or cells: COS-7 (DEAE-dextran transfection). The note with it: TREK-1 transfected COS-7 homogenates, read-out: affinity for TREK-1.
Method: Experiments were performed using COS-7 cells (10^6 cells per diameter 100 dish) transfected with TREK-1 (2 μg/dish) in the presence or in the absence of NTSR3/sortilin (2 μg/dish) using the DEAE-dextran protocol.
Incubations were terminated by addition of 2 ml of ice-cold binding buffer followed by filtration through cellulose acetate filters (Sartorius, Göttingen, Germany) and washing twice with 2 ml of ice-cold buffer. Radioactivity on filters was counted with a gamma-counter.
For experiment [9], the target named is T1, TREK-1. The experiment is described as follows: Whole-cell patch-clamp on TREK-1 transfected COS-7 cells. The format is cell-based. Details: GFP; expressed in transfected cells; host or cells: COS-7 (DEAE-dextran transfection). The following applies: after 90 sec of application. Here is the method:
All electrophysiological experiments were done on COS-7 cells seeded at a density of 20,000 cells/35-mm dish 24 h before transfection. Cells were transfected by the classical DEAE-dextran method with TREK-1-GFP plasmids (0.1 μg/μL). Cells were visualized 48-72 h after transfection using fluorescence.
The whole-cell patch-clamp technique was used to evaluate TREK-1 potassium channel current by using a RK 400 patch-clamp amplifier (Axon Instruments, U.S.A.), as previously described. Currents were lowpass filtered at 3 kHz, digitized at 10 kHz using a 12-bit analog-to-digital converter. […] The bath solution contained (in mM): 150 NaCl, 5 KCl, 3 MgCl2, 1 CaCl2, and 10 HEPES, adjusted to pH 7.4 with NaOH; the patch pipette solution contained (in mM): 155 KCl, 3 MgCl2, 5 EGTA, and 10 HEPES, adjusted to pH 7.2 with KOH. Cells were clamped at −80 mV and voltage changes were either applied by ramp (from −100 to 50 mV, 1 s in duration) or by step (from −100 to 40 mV, 1.5 s in duration). Cells were continuously superfused with a microperfusion system. The pipette capacitance was not subtracted from total membrane capacitance and there was no leak substraction. All experiments were done at room temperature (21° C. to 22° C.) and in the presence of a cocktail of potassium channel inhibitors (K^+ blockers: 10 mM tetraethyl ammonium (TEA), 3 mM 4-aminopyridine (4-AP), 50 nM charybdotoxin, 10 μM glibenclamide, 100 nM apamin).
Pclamp software was used to analyze currents recorded in the whole-cell mode measured at 0 mV. Results are expressed as means±SD. To obtain the IC50 value for dose-dependent inhibition, experimental data were fitted with a standard sigmoidal function.

For experiment [10], the target named is NTSR3/Sortilin (endogenous, C13NJ microglial cell line). The experiment is described as follows: cell-based or functional assay.
NTSR3/Sortilin (endogenous, C13NJ microglial cell line), sequence (Q99523 78-831): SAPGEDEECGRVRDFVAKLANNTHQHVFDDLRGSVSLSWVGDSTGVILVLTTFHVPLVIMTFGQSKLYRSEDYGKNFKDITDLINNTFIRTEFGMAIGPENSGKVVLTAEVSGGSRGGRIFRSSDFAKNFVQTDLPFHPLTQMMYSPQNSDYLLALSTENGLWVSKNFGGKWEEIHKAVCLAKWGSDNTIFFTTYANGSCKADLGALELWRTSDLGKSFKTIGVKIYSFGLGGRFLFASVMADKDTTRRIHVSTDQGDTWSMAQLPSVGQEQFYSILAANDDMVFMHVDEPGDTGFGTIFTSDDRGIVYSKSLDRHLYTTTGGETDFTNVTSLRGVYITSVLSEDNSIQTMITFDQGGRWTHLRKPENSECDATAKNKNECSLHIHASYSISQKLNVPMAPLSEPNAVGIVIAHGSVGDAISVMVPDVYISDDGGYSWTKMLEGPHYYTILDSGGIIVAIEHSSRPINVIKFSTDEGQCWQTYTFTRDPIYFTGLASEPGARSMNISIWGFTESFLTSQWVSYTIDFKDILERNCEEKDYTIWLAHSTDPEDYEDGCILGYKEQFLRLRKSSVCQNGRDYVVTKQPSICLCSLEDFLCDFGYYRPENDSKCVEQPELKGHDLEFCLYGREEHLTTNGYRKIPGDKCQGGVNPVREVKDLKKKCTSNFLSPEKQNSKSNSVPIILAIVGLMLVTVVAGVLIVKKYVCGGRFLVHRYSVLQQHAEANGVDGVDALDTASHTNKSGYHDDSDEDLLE
In experiment [11] the target is TREK-1 channel (expressed by transfection in COS-7 cells). The experiment is described as follows: cell-based or functional assay.
TREK-1 channel (expressed by transfection in COS-7 cells), sequence (O95069 whole entry): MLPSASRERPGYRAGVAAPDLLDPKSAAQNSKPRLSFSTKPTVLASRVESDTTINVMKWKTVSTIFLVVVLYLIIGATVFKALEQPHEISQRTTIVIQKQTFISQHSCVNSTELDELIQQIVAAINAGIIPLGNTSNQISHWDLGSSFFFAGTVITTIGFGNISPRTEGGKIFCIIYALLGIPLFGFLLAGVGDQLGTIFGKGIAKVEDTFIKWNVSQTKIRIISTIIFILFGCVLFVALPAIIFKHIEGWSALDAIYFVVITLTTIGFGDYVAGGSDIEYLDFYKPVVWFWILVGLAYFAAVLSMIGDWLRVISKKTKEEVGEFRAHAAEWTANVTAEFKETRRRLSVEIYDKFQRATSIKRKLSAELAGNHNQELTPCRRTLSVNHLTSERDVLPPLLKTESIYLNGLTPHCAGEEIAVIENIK
The target of experiment [12] is NTSR3/Sortilin (endogenous, C13NJ microglial cell line). The experiment is described as follows: competition with 0.2 nM 125I-NT on C13NJ cell homogenates, filtration.
For experiment [13], the target named is TREK-1 channel (expressed by transfection in COS-7 cells). The experiment is described as follows: competition with 0.2 nM 125I-spadin on TREK-1 transfected COS-7 cell homogenates, filtration.

“Also recorded” adds a separate entry of the source. No end group written: not given here.

In the case of `CNCCC(Oc1ccc(C(F)(F)F)cc1)c1ccccc1` (stereo not shown) [fluoxetine, Fluoxetine, reference compound], in experiment [1] (chronic, 15 days, spadin 10^-6 M, fluoxetine 1 mg/kg), the “reduction of time of immobility” value was “around 30%”. The “reduction of time spent immobile” value in [1] (subchronic, 4 days, spadin i.v. 10^-6 M, fluoxetine 3 mg/kg) is on record as “had no effect; also recorded: without effect”; in [2] it was “had no effect; also recorded: without effect”. Also, in experiment [3], the “latency to feed versus saline” value was “had no effect”. For the same molecule, the “reduction of stress-induced increase in corticosterone levels versus saline” value in experiment [4] was determined as 59.1%. In [5] (4-day treatment, spadin i.p. 10^-5 M), the “number of BrdU-positive cells in the SGZ versus saline” value is recorded as “had no effect”. In addition, the “number of BrdU-positive cells versus saline” value in [5] (15 days) is “significant increase”. In addition, in [6], the “block of arachidonic acid evoked current (putative TREK current)” value is listed as “fully blocked”. Moreover, in [7], the “inhibition of the current recorded in presence of potassium blockers, substance alone” value was found to be 13.0 ± 3.8%.

As to “QDRLDAPPPPAAPLPR [N-terminal fragment Gln1-Arg16, reference compound]”, in experiment [8], the Kd is 1000 nM. The “inhibition of current increase induced by 10 μM aa” value in [9] is reported as “unable to inhibit”.

B1: spadin (peptide)
peptide: APLPRWSGPIGVSWGLR
Take B1: the C13NJ cell migration induced by 10 nM NT in the presence of 1 µM spadin (% of migration with 10% FCS) in experiment [10] was 6.2%. In experiment [11], this molecule displayed an IC50 of dose-dependent inhibition of TREK-1 current at 0 mV of 70.7 nM and a block of arachidonic acid-stimulated TREK-1 current (whole-cell patch clamp, transfected COS-7 cells, 100 nM spadin) of 63%. Besides, in [12], the affinity turned out to be 8 nM. The molecule further had an affinity in experiment [13] of 10 nM.
